Test system: splenocytes
Experiment: MβCD treatment of glycolipid-pulsed DCs, stimulation of autologous splenocytes in vitro
Assay type: cell-based, C57BL/6 mice
Conditions: DCs pulsed 18 hr, 10 mM MβCD 15 min, 24 hr culture
Experimental: Figure 7 Functional Consequences of Membrane Lipid Raft Association of Glycolipid-Loaded CD1d Molecules (A) C57BL/6 BMDCs were pulsed for 18 hr with the indicated glycolipids, washed, and incubated for 15 min in medium alone (hatched bars) or medium containing 10 mM MβCD (solid bars). Cells were then fixed (1% paraformaldehyde) and used for stimulating autologous splenocytes for 24 hr, after which supernatant concentrations of IFN-γ and IL-4 were measured. Dotted lines indicate the background levels of cytokines in cultures with BMDC pulsed with vehicle only. Means and standard deviations for triplicate cultures are shown, and results are representative of three experiments. ^∗∗p < 0.01 (ANOVA, Bonferroni post-test). (B) Effect of MβCD on in vivo presentation of αGalCer analogs. Splenic DCs were pulsed ex vivo with the indicated glycolipids for 18 hr and then incubated for 15 min in medium without (−, hatched bars) or with 10 mM MβCD (+, solid bars). After extensive washing, the cells were injected i.p. into naive C57BL/6 mice (10^6 cells/mouse). Serum was assayed for IL-4 at 2 hr and for IFN-γ at 24 hr postinjection. Data shown are means and standard deviations for pooled data from two experiments that had three mice per group. ^∗∗p < 0.01 (ANOVA, Bonferroni post-test); NS, not significant (p > 0.05).
For in vitro stimulation, murine iNKT hybridomas at 5 × 10^4 cells/well in 96-well plates were stimulated with an equal number of either JAWS II cells or transfected A20 cells in complete medium with glycolipids for 12 hr at 37°C, and levels of murine IL-2 secretion were determined. For some experiments, APCs were preincubated with glycolipids for 12 hr or fixed with paraformaldehyde (1% for 2 min at RT) prior to the addition of iNKT cell hybridomas. For in vitro stimulation of murine splenic iNKT cells, splenocytes from BALB/c or C57BL/6 mice were plated at 5 × 10^5 cells per well in complete medium in 96-well plates and stimulated with glycolipids for 48 hr at 37°C. Subsequently the levels of IL-4, IL-13, and IFN-γ in culture supernatants were quantified by capture ELISA. For assays with methyl-β-cyclodextrin (MβCD) treatment of APCs, we prepared splenic DCs with a CD11c^+ cell isolation kit from Miltenyi Biotech from mice that had been injected s.c. 14 days previously with 10^5 Flt3-ligand-secreting B16 melanoma cells to increase the yield ([Mach et al., 2000]). Purified CD11c^+ cells were cultured in complete medium for 18 hr with glycolipids (100 nM) as indicated, washed, and incubated at 37°C for 15 min in medium with or without 10 mM MβCD (Sigma-Aldrich) and subsequently fixed (1% paraformaldehyde) and cultured in 96-well plates at 2 × 10^5 cells/well with autologous splenocytes (4 × 10^5 cells per well). […]

## CCCCCCCCCCCCCCC(O)C(O)C(COC1OC(CO)C(O)C(O)C1O)NC(=O)CCCCCCCCC (stereo not shown) [αGalCer-C10:0]
  effect of MβCD treatment of pulsed DCs on stimulation of IFN-γ production by splenocytes: unaffected by MβCD

## CCCCCC=CCC=CCCCCCCCCCC(=O)NC(COC1OC(CO)C(O)C(O)C1O)C(O)C(O)CCCCCCCCCCCCCC (stereo not shown) [αGalCer-C20:2]
  effect of MβCD treatment of pulsed DCs on stimulation of IFN-γ production by splenocytes: unaffected by MβCD

## CCCCCCCCCCCCCCCCCCCCCCCCCC(=O)NC(COC1OC(CO)C(O)C(O)C1O)C(O)C(O)CCCCCCCCCCCCCC (stereo not shown) [αGalCer-C26:0, reference compound]
  effect of MβCD treatment of pulsed DCs on stimulation of IFN-γ production by splenocytes: markedly reduced
  effect of MβCD treatment of pulsed DCs on stimulation of IL-4: no effect
